Results reported in the CheMixHub viscosity set.

Test: xn = mol fraction of the nth substance listed

Brc1ccccc1 + ClC(Cl)(Cl)Cl
Details	viscosity [mPa·s]
298 K, 101.3 kPa, x2 = 0.1709	1.035
298 K, 101.3 kPa, x2 = 0.3202	1.011
298 K, 101.3 kPa, x2 = 0.5187	0.971
298 K, 101.3 kPa, x2 = 0.6674	0.942
298 K, 101.3 kPa, x2 = 0.8522	0.915
303.15 K, 101 kPa, x1 = 0.092	0.727
303.15 K, 101 kPa, x1 = 0.187	0.653
303.15 K, 101 kPa, x1 = 0.283	0.624
303.15 K, 101 kPa, x1 = 0.38	0.595
303.15 K, 101 kPa, x1 = 0.479	0.619
303.15 K, 101 kPa, x1 = 0.58	0.656
303.15 K, 101 kPa, x1 = 0.682	0.7
303.15 K, 101 kPa, x1 = 0.787	0.778
303.15 K, 101 kPa, x1 = 0.892	0.881
318 K, 101.3 kPa, x2 = 0.1581	0.8313
318 K, 101.3 kPa, x2 = 0.3169	0.8147
318 K, 101.3 kPa, x2 = 0.5212	0.7898
318 K, 101.3 kPa, x2 = 0.6657	0.7758
318 K, 101.3 kPa, x2 = 0.8618	0.76

COC(=O)CC(=O)OC + ClC(Cl)(Cl)Cl
303.15 K, 101 kPa
Details	viscosity [mPa·s]
x1 = 0.0856	0.9503
x1 = 0.1747	1.064
x1 = 0.2659	1.186
x1 = 0.3608	1.295
x1 = 0.4586	1.409
x1 = 0.5599	1.52
x1 = 0.6641	1.601
x1 = 0.7723	1.687
x1 = 0.8841	1.753

Brc1ccccc1 + ClC(Cl)=C(Cl)Cl
303.15 K, 101 kPa
Details	viscosity [mPa·s]
x2 = 0.1026	0.978
x2 = 0.1749	0.971
x2 = 0.2799	0.96
x2 = 0.3996	0.945
x2 = 0.4574	0.933
x2 = 0.5408	0.916
x2 = 0.6276	0.894
x2 = 0.7273	0.871
x2 = 0.8585	0.84
x2 = 0.9426	0.822

COC(=O)CC(=O)OC + ClC(Cl)Cl
303.15 K, 101 kPa
Details	viscosity [mPa·s]
x1 = 0.0727	0.612
x1 = 0.1507	0.727
x1 = 0.2329	0.845
x1 = 0.3213	0.968
x1 = 0.415	1.092
x1 = 0.5154	1.222
x1 = 0.6231	1.354
x1 = 0.7393	1.492
x1 = 0.8644	1.64

BrCCBr + ClCCCl
298.15 K, 101 kPa
Details	viscosity [mPa·s]
x2 = 0.175	1.421
x2 = 0.3753	1.216
x2 = 0.5066	1.117
x2 = 0.6547	1.006
x2 = 0.7793	0.9179
x2 = 0.8501	0.8648

Brc1ccccc1 + Clc1ccccc1
298.15 K, 101 kPa
Details	viscosity [mPa·s]
x2 = 0.299	0.934
x2 = 0.512	0.86
x2 = 0.676	0.823
x2 = 0.828	0.774

CC(F)(F)Cl + FC(F)Cl
Details	viscosity [mPa·s]
293.15 K, 101 kPa, x2 = 0.115	0.2343
293.15 K, 101 kPa, x2 = 0.331	0.2197
293.15 K, 101 kPa, x2 = 0.54	0.2009
293.15 K, 101 kPa, x2 = 0.635	0.2028
293.15 K, 101 kPa, x2 = 0.913	0.177
293.25 K, 101 kPa, x2 = 0.438	0.2153
293.35 K, 101 kPa, x2 = 0.822	0.189
293.73 K, 101.13 kPa, x2 = 0.526	0.195
312.35 K, 101 kPa, x2 = 0.731	0.1511
312.55 K, 101 kPa, x2 = 0.115	0.1951
312.75 K, 101 kPa, x2 = 0.913	0.1394
312.85 K, 101 kPa, x2 = 0.635	0.1609
312.95 K, 101 kPa, x2 = 0.331	0.1754
312.95 K, 101 kPa, x2 = 0.54	0.1615
313.15 K, 101 kPa, x2 = 0.822	0.1495
313.25 K, 101 kPa, x2 = 0.438	0.1749
